Reference: PubChem BioAssay (NCI)
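Values below derive from 48-hour exposures of cells grown in 96-well plates, with endpoints linearly interpolated between the two concentrations bracketing the appropriate inhibition level. TGI: concentration producing complete growth inhibition.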

Legend:
Test in all cases: inhibition of tumour cell growth, NCI panel, 48 h
LOX IMVI melanoma = test system: LOX IMVI melanoma
OVCAR-5 ovarian = test system: OVCAR-5 ovarian
NCI-H23 lung = test system: NCI-H23 lung
SK-OV-3 ovarian = test system: SK-OV-3 ovarian
RXF 393 renal = test system: RXF 393 renal
T-47D breast = test system: T-47D breast
DU-145 prostate = test system: DU-145 prostate
UACC-62 melanoma = test system: UACC-62 melanoma
HCT-116 colon = test system: HCT-116 colon
SK-MEL-28 melanoma = test system: SK-MEL-28 melanoma
OVCAR-8 ovarian = test system: OVCAR-8 ovarian
MALME-3M melanoma = test system: MALME-3M melanoma
SW-620 colon = test system: SW-620 colon
IGROV1 ovarian = test system: IGROV1 ovarian
KM12 colon = test system: KM12 colon
RPMI-8226 leukemia = test system: RPMI-8226 leukemia
M14 melanoma = test system: M14 melanoma
PC-3 prostate = test system: PC-3 prostate
SN12C renal = test system: SN12C renal
ACHN renal = test system: ACHN renal
COLO 205 colon = test system: COLO 205 colon
MCF7 breast = test system: MCF7 breast
U251 CNS = test system: U251 CNS
A549 NSCLC = test system: A549 NSCLC
NCI-H522 lung = test system: NCI-H522 lung
SK-MEL-5 melanoma = test system: SK-MEL-5 melanoma
HL-60(TB) leukemia = test system: HL-60(TB) leukemia
EKVX NSCLC = test system: EKVX NSCLC
K-562 leukemia = test system: K-562 leukemia
HOP-92 NSCLC = test system: HOP-92 NSCLC
SK-MEL-2 melanoma = test system: SK-MEL-2 melanoma
A498 renal = test system: A498 renal
SNB-19 CNS = test system: SNB-19 CNS
HCT-15 colon = test system: HCT-15 colon
MDA-MB-231 breast = test system: MDA-MB-231 breast
NCI-H226 lung = test system: NCI-H226 lung
OVCAR-4 ovarian = test system: OVCAR-4 ovarian
HOP-62 NSCLC = test system: HOP-62 NSCLC
SF-539 CNS = test system: SF-539 CNS
SR leukemia = test system: SR leukemia
SNB-75 CNS = test system: SNB-75 CNS
TK-10 renal = test system: TK-10 renal
SF-295 CNS = test system: SF-295 CNS
CCRF-CEM leukemia = test system: CCRF-CEM leukemia
NCI/ADR-RES ovarian = test system: NCI/ADR-RES ovarian
UO-31 renal = test system: UO-31 renal
UACC-257 melanoma = test system: UACC-257 melanoma
SF-268 CNS = test system: SF-268 CNS
HCC-2998 colon = test system: HCC-2998 colon
786-0 renal = test system: 786-0 renal
MDA-MB-435 = test system: MDA-MB-435
HS 578T breast = test system: HS 578T breast
OVCAR-3 ovarian = test system: OVCAR-3 ovarian
NCI-H460 lung = test system: NCI-H460 lung
MOLT-4 leukemia = test system: MOLT-4 leukemia
BT-549 breast = test system: BT-549 breast
MDA-N = test system: MDA-N
HT29 colon = test system: HT29 colon
CAKI-1 renal = test system: CAKI-1 renal

O=C(O)CCc1ccc(-c2ccccc2)[nH]1
TGI (LOX IMVI melanoma): > 100 µM | TGI (OVCAR-5 ovarian): > 100 µM | TGI (NCI-H23 lung): > 100 µM | TGI (SK-OV-3 ovarian): > 100 µM | TGI (RXF 393 renal): > 100 µM | TGI (T-47D breast): > 100 µM | TGI (DU-145 prostate): > 100 µM | TGI (UACC-62 melanoma): > 100 µM | TGI (HCT-116 colon): > 100 µM | TGI (SK-MEL-28 melanoma): > 100 µM | TGI (OVCAR-8 ovarian): > 100 µM | TGI (MALME-3M melanoma): > 100 µM | TGI (SW-620 colon): > 100 µM | TGI (IGROV1 ovarian): > 100 µM | TGI (KM12 colon): > 100 µM | TGI (RPMI-8226 leukemia): > 100 µM | TGI (M14 melanoma): > 100 µM | TGI (PC-3 prostate): > 100 µM | TGI (SN12C renal): > 100 µM | TGI (ACHN renal): > 100 µM | TGI (COLO 205 colon): > 100 µM | TGI (MCF7 breast): > 100 µM | TGI (U251 CNS): > 100 µM | TGI (A549 NSCLC): > 100 µM | TGI (NCI-H522 lung): > 100 µM | TGI (SK-MEL-5 melanoma): > 100 µM | TGI (HL-60(TB) leukemia): > 100 µM | TGI (EKVX NSCLC): > 100 µM | TGI (K-562 leukemia): > 100 µM | TGI (HOP-92 NSCLC): > 100 µM | TGI (SK-MEL-2 melanoma): > 100 µM | TGI (A498 renal): > 100 µM | TGI (SNB-19 CNS): > 100 µM | TGI (HCT-15 colon): > 100 µM | TGI (MDA-MB-231 breast): > 100 µM | TGI (NCI-H226 lung): > 100 µM | TGI (OVCAR-4 ovarian): > 100 µM | TGI (HOP-62 NSCLC): > 100 µM | TGI (SF-539 CNS): > 100 µM | TGI (SR leukemia): > 100 µM | TGI (SNB-75 CNS): > 100 µM | TGI (TK-10 renal): > 100 µM | TGI (SF-295 CNS): > 100 µM | TGI (CCRF-CEM leukemia): > 100 µM | TGI (NCI/ADR-RES ovarian): > 100 µM | TGI (UO-31 renal): > 100 µM | TGI (UACC-257 melanoma): > 100 µM | TGI (SF-268 CNS): > 100 µM | TGI (HCC-2998 colon): > 100 µM | TGI (786-0 renal): > 100 µM | TGI (MDA-MB-435): > 100 µM | TGI (HS 578T breast): > 100 µM | TGI (OVCAR-3 ovarian): > 100 µM | TGI (NCI-H460 lung): > 100 µM | TGI (MOLT-4 leukemia): > 100 µM | TGI (BT-549 breast): > 100 µM | TGI (MDA-N): > 100 µM | TGI (HT29 colon): > 100 µM | TGI (CAKI-1 renal): > 100 µM

CC(C)Oc1c(N(Cc2ccccc2)c2ccccc2C2SCCCS2)c(=O)c1=O
TGI (LOX IMVI melanoma): > 100 µM | TGI (OVCAR-5 ovarian): > 100 µM | TGI (NCI-H23 lung): > 47.5 µM | TGI (SK-OV-3 ovarian): > 73.4 µM | TGI (RXF 393 renal): > 100 µM | TGI (T-47D breast): > 100 µM | TGI (DU-145 prostate): > 100 µM | TGI (UACC-62 melanoma): > 100 µM | TGI (HCT-116 colon): 59.3 µM | TGI (SK-MEL-28 melanoma): > 100 µM | TGI (OVCAR-8 ovarian): > 60.7 µM | TGI (MALME-3M melanoma): > 100 µM | TGI (SW-620 colon): 8.2 µM | TGI (IGROV1 ovarian): > 32.8 µM | TGI (KM12 colon): 35.9 µM | TGI (RPMI-8226 leukemia): > 100 µM | TGI (M14 melanoma): 19.3 µM | TGI (PC-3 prostate): 35.7 µM | TGI (SN12C renal): > 100 µM | TGI (ACHN renal): > 100 µM | TGI (COLO 205 colon): 21.5 µM | TGI (MCF7 breast): > 100 µM | TGI (U251 CNS): > 100 µM | TGI (A549 NSCLC): > 100 µM | TGI (NCI-H522 lung): 4.87 µM | TGI (SK-MEL-5 melanoma): > 100 µM | TGI (HL-60(TB) leukemia): > 100 µM | TGI (EKVX NSCLC): > 100 µM | TGI (K-562 leukemia): > 100 µM | TGI (HOP-92 NSCLC): > 83.3 µM | TGI (SK-MEL-2 melanoma): 20.1 µM | TGI (A498 renal): > 85.1 µM | TGI (SNB-19 CNS): > 100 µM | TGI (HCT-15 colon): > 56.5 µM | TGI (MDA-MB-231 breast): > 56 µM | TGI (NCI-H226 lung): > 28.2 µM | TGI (OVCAR-4 ovarian): > 100 µM | TGI (HOP-62 NSCLC): > 100 µM | TGI (SF-539 CNS): 8 µM | TGI (SR leukemia): > 100 µM | TGI (SNB-75 CNS): 7.22 µM | TGI (TK-10 renal): > 100 µM | TGI (SF-295 CNS): 5.67 µM | TGI (CCRF-CEM leukemia): > 100 µM | TGI (NCI/ADR-RES ovarian): 4.7 µM | TGI (UO-31 renal): > 100 µM | TGI (UACC-257 melanoma): > 100 µM | TGI (SF-268 CNS): > 100 µM | TGI (HCC-2998 colon): 18.5 µM | TGI (786-0 renal): > 100 µM | TGI (MDA-MB-435): 10.3 µM | TGI (HS 578T breast): 32.6 µM | TGI (OVCAR-3 ovarian): 7.07 µM | TGI (NCI-H460 lung): > 60.8 µM | TGI (MOLT-4 leukemia): > 100 µM | TGI (BT-549 breast): > 100 µM | TGI (MDA-N): > 30.7 µM | TGI (HT29 colon): 6.78 µM | TGI (CAKI-1 renal): > 100 µM
